In brackets after ≈: the same amount, converted by molar mass.
Assays:
Assay type in all cases: functional
[1] = tested on: Mycobacterium tuberculosis
[2] = tested on: Mycobacterium tuberculosis; remark: listed apart in the source
[3] = tested on: Mycobacterium tuberculosis; remark: listed apart in the source

SMILES	MIC [1] [µg/mL]	MIC [2] [µg/mL]	MIC50 [3] [µg/mL]	MIC90 [3] [µg/mL]
COc1nc2ccc(Br)cc2cc1[C@@H](c1ccccc1)[C@@](O)(CCN(C)C)c1cccc2ccccc12 [BEDAQUILINE]	0.01 (≈ 0.018 µM)	0.03 (≈ 0.054 µM)		
O=[N+]([O-])c1cn2c(n1)OC[C@@H](OCc1ccc(OC(F)(F)F)cc1)C2 [PRETOMANID]			0.015 (≈ 0.0418 µM)	0.063 (≈ 0.175 µM)
